Publication PMC8251347, “Crystal structure of the ferredoxin reductase component of carbazole 1,9a-dioxygenase from Janthinobacterium sp. J3” (Acta Crystallographica. Section D, Structural Biology, 2021)

Target: T1, CARDO-RJ3 (ferredoxin reductase component of carbazole 1,9a-dioxygenase) (Janthinobacterium sp. J3, UniProt Q84II0)
T1 construct: gene carAd; full length, 329 residues, N-terminal His tag kept, expressed in E. coli (plasmid pEJ3NAd for the SeMet protein), monomer in solution; contains plant-type [2Fe-2S] cluster
T1 sequence (Q84II0 1-329): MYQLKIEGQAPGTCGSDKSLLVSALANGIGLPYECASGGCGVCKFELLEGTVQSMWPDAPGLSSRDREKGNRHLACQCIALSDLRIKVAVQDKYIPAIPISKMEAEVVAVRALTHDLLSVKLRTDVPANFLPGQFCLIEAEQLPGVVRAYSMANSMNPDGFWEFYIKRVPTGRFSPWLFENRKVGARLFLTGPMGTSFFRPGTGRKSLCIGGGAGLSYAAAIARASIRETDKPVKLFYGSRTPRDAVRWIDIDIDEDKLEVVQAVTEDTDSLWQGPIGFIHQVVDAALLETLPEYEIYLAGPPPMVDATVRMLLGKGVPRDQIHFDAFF
Test: X-ray crystallography, […] A (type I crystal)
Conditions: FAD-binding domain site; Ser151, Tyr165, Lys167, Ser217 hydrogen bonds; Phe135 and Phe328 stacking; [2Fe-2S] cluster present; no NAD(P)H

`Cc1cc2nc3c(=O)[nH]c(=O)nc-3n(C[C@H](O)[C@H](O)[C@H](O)COP(=O)(O)OP(=O)(O)OC[C@H]3O[C@@H](n4cnc5c(N)ncnc54)[C@H](O)[C@@H]3O)c2cc1C` [FAD] was tested. Which “X-ray crystallography, 2.6 A (type I crystal)” value did it give?
The value was “The type I structure contained the [2Fe-2S] cluster and FAD”.
